The values below come from patent publication US11401508B2, “Methods for isolating human cardiac ventricular progenitor cells” (Procella Therapeutics AB, priority 2016, dated 2022).

As usually defined, the IC50 is the concentration at which inhibition is half-maximal.

The target in one assay is T1, Porcn (Homo sapiens, UniProt Q9H237).
T1 sequence (Q9H237 1-461): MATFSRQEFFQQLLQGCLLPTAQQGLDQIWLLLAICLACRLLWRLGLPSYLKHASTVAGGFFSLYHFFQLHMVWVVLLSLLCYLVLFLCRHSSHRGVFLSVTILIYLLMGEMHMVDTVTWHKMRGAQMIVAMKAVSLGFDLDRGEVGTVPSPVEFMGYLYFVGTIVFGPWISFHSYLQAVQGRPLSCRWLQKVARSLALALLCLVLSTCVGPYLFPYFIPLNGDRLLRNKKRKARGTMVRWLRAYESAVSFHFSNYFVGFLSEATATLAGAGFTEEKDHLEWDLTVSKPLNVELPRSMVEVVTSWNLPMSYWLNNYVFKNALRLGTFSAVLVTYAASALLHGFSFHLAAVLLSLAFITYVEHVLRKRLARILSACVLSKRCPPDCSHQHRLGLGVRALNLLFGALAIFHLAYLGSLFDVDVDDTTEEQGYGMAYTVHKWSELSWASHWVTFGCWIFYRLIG
To be noted: read-out: IC50 (Porcn inhibitor); cited from earlier work.

A further assay deals with hPSCs. Briefly: Cardiac differentiation of hPSCs, lineage markers by flow cytometry and immunostaining. The assay is classed as cell-based, human. As to the method:
Cells were then cultured in mTeSR1, changed daily.
Data were collected on a FACSCaliber flow cytometer (Beckton Dickinson) and analyzed using FlowJo.
(Flow cytometry measures light scatter and fluorescence of single cells or particles in a stream.)

Assay [1] deals with mature human muscle organ. Briefly: Force generation of muscle strips from HVP-derived human muscle organ on electric stimulation. To be noted: 5-month graft, p<0.05 compared to control. An excerpt:
Animals were sacrificed and the engrafted kidneys were removed for further analysis. The 5-month human graft was a hemisphere structure with the radius of 0.4 cm (diameter of 0.8 cm). […] In addition, muscle trips taken from our mature human muscle organ generated forces (0.36±0.04 mN) in response to electric stimulation and increased their force generation after treatment with a β-adrenergic agonist isoprenaline (0.51±0.02 mN, p<0.05 compared to control). Taken together, these studies indicate that the HVPs are capable of generating a fully functional, mature human ventricular muscle organ in vivo via a cell autonomous pathway, i.e., without the addition of other cells, genes, matrix proteins, or biomaterials.

A further assay addresses GSK-3 α (Homo sapiens, UniProt P49840). To be noted: cited from earlier work.
Another assay addresses GSK-3, β (Homo sapiens, UniProt P49841). To be noted: read-out: IC50 GSK-3 β; cited from earlier work.

Sequence of GSK-3 α (P49840 whole entry, species assumed): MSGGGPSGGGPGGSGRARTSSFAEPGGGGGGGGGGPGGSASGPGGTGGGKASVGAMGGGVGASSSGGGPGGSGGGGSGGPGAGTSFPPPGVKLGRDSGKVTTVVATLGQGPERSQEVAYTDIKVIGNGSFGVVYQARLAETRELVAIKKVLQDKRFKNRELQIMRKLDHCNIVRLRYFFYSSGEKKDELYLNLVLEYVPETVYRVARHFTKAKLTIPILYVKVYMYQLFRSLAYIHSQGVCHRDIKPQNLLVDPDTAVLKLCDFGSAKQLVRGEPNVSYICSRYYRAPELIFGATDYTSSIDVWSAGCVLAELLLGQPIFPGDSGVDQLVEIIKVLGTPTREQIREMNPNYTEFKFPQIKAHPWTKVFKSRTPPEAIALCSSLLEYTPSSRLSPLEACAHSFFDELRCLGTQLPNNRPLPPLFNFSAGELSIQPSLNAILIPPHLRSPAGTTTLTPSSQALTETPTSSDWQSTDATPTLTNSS
Sequence of GSK-3, β (P49841 whole entry, species assumed): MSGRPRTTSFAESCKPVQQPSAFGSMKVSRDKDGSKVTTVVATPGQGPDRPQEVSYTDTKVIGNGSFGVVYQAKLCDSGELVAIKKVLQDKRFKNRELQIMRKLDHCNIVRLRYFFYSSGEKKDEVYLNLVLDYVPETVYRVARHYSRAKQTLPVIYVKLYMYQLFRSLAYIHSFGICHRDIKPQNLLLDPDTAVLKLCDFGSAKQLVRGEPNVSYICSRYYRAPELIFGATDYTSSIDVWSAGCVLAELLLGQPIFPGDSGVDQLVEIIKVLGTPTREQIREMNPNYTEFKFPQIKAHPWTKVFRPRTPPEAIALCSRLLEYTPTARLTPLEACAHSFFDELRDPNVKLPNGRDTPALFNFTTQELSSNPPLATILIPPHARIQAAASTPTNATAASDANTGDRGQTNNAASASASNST

Take `Cc1ccc2nc(NC(=O)CSc3nc4c(c(=O)n3-c3ccccc3)SCC4)sc2c1` [IWP2]: the IC50 at Porcn was 27 nM.

Consider `Cc1cc(-c2ccc(CC(=O)Nc3ccc(-c4cccnc4)cc3)cc2)ccn1` [Wnt-059], for which the IC50 on Porcn is 0.074 nM. Also, the “ventricular progenitor differentiation from mesoderm cells” value in the assay with hPSCs (48-hour treatment) is reported as “enhanced ventricular progenitor differentiation”.

As for `CC(C)NCC(O)c1ccc(O)c(O)c1` (centres unmarked) [isoprenaline], in assay [1], the “force generated by muscle strips after treatment with β-adrenergic agonist” value is 0.51±0.02 mN.

For the compound CHIR98014, the IC50 is 0.65 nM on GSK-3 α and 0.58 nM on GSK-3, β. Also, in the assay on hPSCs (after 24 hour treatment), the “hPSCs expressing the mesoderm marker Brachyury” value is recorded as “more than 99%”. Besides, in the assay with hPSCs (three days after treatment), the “differentiated cells expressing Mesp1 (cardiac mesoderm)” value is “more than 95%”.
